Measured values reported in PubChem BioAssay (NCI).
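Results reflect a 48-hour exposure of cells in 96-well plates to compound at five concentrations. Here, GI50 denotes the concentration required for 50% inhibition of growth. TGI denotes the concentration required for complete inhibition of growth.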

Columns and labels:
Assay in all cases: DTP human tumour cell line panel, 48 h
HCT-15 colon = test system: HCT-15 colon
MCF7 breast = test system: MCF7 breast
PC-3 prostate = test system: PC-3 prostate
HS 578T breast = test system: HS 578T breast
SW-620 colon = test system: SW-620 colon
786-0 renal = test system: 786-0 renal
SK-OV-3 ovarian = test system: SK-OV-3 ovarian
UACC-62 melanoma = test system: UACC-62 melanoma
LXFL 529 NSCLC = test system: LXFL 529 NSCLC
DMS 273 small cell lung = test system: DMS 273 small cell lung

Cc1c(N2C(=O)/C(=C\c3ccc(N(C)C)cc3)N=C2c2ccccc2)c(=O)n(-c2ccccc2)n1C
GI50 (HCT-15 colon): > 100 µM | TGI (HCT-15 colon): > 100 µM | GI50 (MCF7 breast): 25700 nM | TGI (MCF7 breast): > 100 µM | GI50 (PC-3 prostate): 29700 nM | TGI (PC-3 prostate): > 100 µM | GI50 (HS 578T breast): > 100 µM | TGI (HS 578T breast): > 100 µM | GI50 (SW-620 colon): > 100000 nM | TGI (SW-620 colon): > 100 µM | GI50 (786-0 renal): > 100 µM | TGI (786-0 renal): > 100 µM | GI50 (SK-OV-3 ovarian): > 100 µM | TGI (SK-OV-3 ovarian): > 100 µM | GI50 (UACC-62 melanoma): > 100 µM | TGI (UACC-62 melanoma): > 100 µM

O=P1(O)c2ccccc2CS(=O)(=O)Cc2ccccc21
TGI (HCT-15 colon): > 100 µM | TGI (MCF7 breast): > 100 µM | TGI (PC-3 prostate): > 100 µM | TGI (HS 578T breast): > 100 µM | TGI (SW-620 colon): > 100 µM | TGI (786-0 renal): > 100 µM | TGI (SK-OV-3 ovarian): > 100 µM | TGI (UACC-62 melanoma): > 100 µM

C[C@@H]1CN2[C@H]3[C@@H]1CC[C@]31CCC(=O)O[C@]1(C)[C@@H]1CC[C@H]3CCC=C3[C@@H]12
GI50 (HCT-15 colon): > 70 µM | TGI (HCT-15 colon): > 70 µM | GI50 (MCF7 breast): > 70000 nM | TGI (MCF7 breast): > 70 µM | GI50 (PC-3 prostate): > 70000 nM | TGI (PC-3 prostate): > 70 µM | GI50 (HS 578T breast): > 70 µM | TGI (HS 578T breast): > 70 µM | GI50 (SW-620 colon): > 70000 nM | TGI (SW-620 colon): > 70 µM | GI50 (786-0 renal): > 70 µM | TGI (786-0 renal): > 70 µM | GI50 (SK-OV-3 ovarian): > 70 µM | TGI (SK-OV-3 ovarian): > 70 µM | GI50 (UACC-62 melanoma): > 70 µM | TGI (UACC-62 melanoma): > 70 µM

O=C1CCC(=O)C(C(=O)CCC(=O)Nc2cccc(Cl)c2)C1 (centres undefined)
TGI (HCT-15 colon): > 100 µM | TGI (LXFL 529 NSCLC): > 100 µM | TGI (SW-620 colon): > 100 µM | TGI (786-0 renal): > 100 µM | TGI (SK-OV-3 ovarian): > 100 µM | TGI (UACC-62 melanoma): > 100 µM

C=C(C)[C@@H]1CC[C@]2(C)[C@H](C=CC3=C4C[C@@](C)(CO)CC[C@]4(C)CC[C@]32C)[C@@]1(C)CCCN
GI50 (HCT-15 colon): 1.53 µM | TGI (HCT-15 colon): 2.92 µM | GI50 (MCF7 breast): 1600 nM | TGI (MCF7 breast): 3.4 µM | GI50 (PC-3 prostate): 1700 nM | TGI (PC-3 prostate): 3.28 µM | GI50 (HS 578T breast): 1.8 µM | TGI (HS 578T breast): 4.07 µM | GI50 (SW-620 colon): 1560 nM | TGI (SW-620 colon): 3.04 µM | GI50 (786-0 renal): 1.68 µM | TGI (786-0 renal): 3.44 µM | GI50 (SK-OV-3 ovarian): 1.72 µM | TGI (SK-OV-3 ovarian): 3.17 µM | GI50 (UACC-62 melanoma): 1.78 µM | TGI (UACC-62 melanoma): 3.17 µM

COc1ccc(-n2sc(=O)n(Cc3ccc(COC(=O)C(C)c4ccc(CC(C)C)cc4)cc3)c2=O)cc1 (centres undefined)
GI50 (HCT-15 colon): 1.1 µM | TGI (HCT-15 colon): 2.86 µM | GI50 (MCF7 breast): 1820 nM | TGI (MCF7 breast): 9.54 µM | GI50 (PC-3 prostate): 5630 nM | TGI (PC-3 prostate): 12.8 µM | GI50 (HS 578T breast): 4.77 µM | TGI (HS 578T breast): 13.8 µM | GI50 (SW-620 colon): 900 nM | TGI (SW-620 colon): 1.82 µM | GI50 (786-0 renal): 6.13 µM | TGI (786-0 renal): 12.9 µM | GI50 (SK-OV-3 ovarian): 28 µM | TGI (SK-OV-3 ovarian): 50 µM | GI50 (UACC-62 melanoma): 4.03 µM | TGI (UACC-62 melanoma): 10.5 µM

CN(NC(=O)CC(=O)NN(C)C(=S)c1ccc(Cl)cc1)C(=S)c1ccc(Cl)cc1
GI50 (HCT-15 colon): 7.72 µM | TGI (HCT-15 colon): > 100 µM | GI50 (MCF7 breast): 18000 nM | TGI (MCF7 breast): > 100 µM | GI50 (PC-3 prostate): 10700 nM | TGI (PC-3 prostate): 56.5 µM | GI50 (HS 578T breast): 17.7 µM | TGI (HS 578T breast): 48.7 µM | GI50 (SW-620 colon): 29300 nM | TGI (SW-620 colon): > 100 µM | GI50 (786-0 renal): 24.6 µM | TGI (786-0 renal): > 100 µM | GI50 (SK-OV-3 ovarian): 34.7 µM | TGI (SK-OV-3 ovarian): 83.8 µM | GI50 (UACC-62 melanoma): 11.2 µM | TGI (UACC-62 melanoma): 30.2 µM

CCCCCc1c(C)[nH]c(/C=c2\[nH]/c(=C3/C=c4ccccc4=N3)cc2OC)c1C
GI50 (HCT-15 colon): 0.0337 µM | TGI (HCT-15 colon): 1.31 µM | GI50 (MCF7 breast): 42.5 nM | TGI (MCF7 breast): 1.43 µM | GI50 (PC-3 prostate): 54.4 nM | TGI (PC-3 prostate): > 100 µM | GI50 (HS 578T breast): 0.0846 µM | TGI (HS 578T breast): 0.883 µM | GI50 (SW-620 colon): 34.1 nM | TGI (SW-620 colon): 2.84 µM | GI50 (786-0 renal): 0.049 µM | TGI (786-0 renal): 0.242 µM | GI50 (SK-OV-3 ovarian): 0.449 µM | TGI (SK-OV-3 ovarian): 4.55 µM | GI50 (UACC-62 melanoma): 0.0624 µM | TGI (UACC-62 melanoma): 0.355 µM

OC1C2C=CCC1CCC2 (centres undefined)
TGI (DMS 273 small cell lung): > 100 µM | TGI (SW-620 colon): > 100 µM | TGI (786-0 renal): > 100 µM | TGI (SK-OV-3 ovarian): > 100 µM | TGI (UACC-62 melanoma): > 100 µM

CCCCCCC1N=C(N)N=C(N)N1c1ccc(Cl)cc1 (centres undefined)
GI50 (HCT-15 colon): > 100 µM | TGI (HCT-15 colon): > 100 µM | GI50 (MCF7 breast): 11400 nM | TGI (MCF7 breast): 25.6 µM | GI50 (PC-3 prostate): 2900 nM | TGI (PC-3 prostate): 52.8 µM | GI50 (HS 578T breast): 2.35 µM | TGI (HS 578T breast): 18.2 µM | GI50 (SW-620 colon): 4050 nM | TGI (SW-620 colon): 32.2 µM | GI50 (786-0 renal): 4.63 µM | TGI (786-0 renal): 47.1 µM | GI50 (SK-OV-3 ovarian): 20.9 µM | TGI (SK-OV-3 ovarian): 63.1 µM | GI50 (UACC-62 melanoma): 8.55 µM | TGI (UACC-62 melanoma): 37.6 µM

Cc1cccnc1CNC1CC(NCc2ncccc2C)CC(NCc2ncccc2C)C1 (centres undefined)
GI50 (HCT-15 colon): 4.05 µM | TGI (HCT-15 colon): 13.3 µM | GI50 (MCF7 breast): 2390 nM | TGI (MCF7 breast): 5.21 µM | GI50 (PC-3 prostate): 2300 nM | TGI (PC-3 prostate): 4.52 µM | GI50 (HS 578T breast): 3.39 µM | TGI (HS 578T breast): 16.2 µM | GI50 (SW-620 colon): 2040 nM | TGI (SW-620 colon): 5.8 µM | GI50 (786-0 renal): 2.15 µM | TGI (786-0 renal): 4.55 µM | GI50 (SK-OV-3 ovarian): 1.98 µM | TGI (SK-OV-3 ovarian): 3.73 µM | GI50 (UACC-62 melanoma): 1.82 µM | TGI (UACC-62 melanoma): 3.63 µM

CCc1ccccc1-n1c(N)c(C#N)c(-c2ccc(OC)c(OC)c2)c(C#N)c1=O
GI50 (HCT-15 colon): 37.4 µM | TGI (HCT-15 colon): > 100 µM | GI50 (MCF7 breast): 16900 nM | TGI (MCF7 breast): 33.5 µM | GI50 (PC-3 prostate): 15400 nM | TGI (PC-3 prostate): 32.8 µM | GI50 (HS 578T breast): 15.5 µM | TGI (HS 578T breast): 41.3 µM | GI50 (SW-620 colon): 33300 nM | TGI (SW-620 colon): > 100 µM | GI50 (786-0 renal): 18.8 µM | TGI (786-0 renal): 33.3 µM | GI50 (SK-OV-3 ovarian): 17.7 µM | TGI (SK-OV-3 ovarian): 36.6 µM | GI50 (UACC-62 melanoma): 16.3 µM | TGI (UACC-62 melanoma): 37.7 µM

CSc1ccc(C2=NN(C(=O)c3ccc(N)cc3)C(c3ccc(F)cc3)C2)cc1 (centres undefined)
GI50 (HCT-15 colon): 3.28 µM | TGI (HCT-15 colon): 14.4 µM | GI50 (MCF7 breast): 3420 nM | TGI (MCF7 breast): 15.2 µM | GI50 (PC-3 prostate): 4500 nM | TGI (PC-3 prostate): 19.1 µM | GI50 (HS 578T breast): 21.4 µM | TGI (HS 578T breast): 55.8 µM | GI50 (SW-620 colon): 6270 nM | TGI (SW-620 colon): 26.3 µM | GI50 (786-0 renal): 13.5 µM | TGI (786-0 renal): 27.1 µM | GI50 (SK-OV-3 ovarian): 16.2 µM | TGI (SK-OV-3 ovarian): 31.7 µM | GI50 (UACC-62 melanoma): 10.1 µM | TGI (UACC-62 melanoma): 22.5 µM

COc1cc(C2C(C#N)=C(N)Oc3cc4c(cc32)OCO4)cc2c1OCO2 (centres undefined)
GI50 (HCT-15 colon): 0.446 µM | TGI (HCT-15 colon): > 100 µM | GI50 (MCF7 breast): 187 nM | TGI (MCF7 breast): > 75 µM | GI50 (PC-3 prostate): 278 nM | TGI (PC-3 prostate): > 100 µM | GI50 (HS 578T breast): 0.328 µM | TGI (HS 578T breast): > 100 µM | GI50 (SW-620 colon): 276 nM | TGI (SW-620 colon): > 100 µM | GI50 (786-0 renal): 0.597 µM | TGI (786-0 renal): > 90.9 µM | GI50 (SK-OV-3 ovarian): 0.439 µM | GI50 (UACC-62 melanoma): 0.285 µM | TGI (UACC-62 melanoma): > 100 µM

CCOc1ccc(NC(=O)CCC(=O)NN)cc1
TGI (HCT-15 colon): > 100 µM | TGI (DMS 273 small cell lung): > 100 µM | TGI (LXFL 529 NSCLC): > 100 µM | TGI (SW-620 colon): > 100 µM | TGI (786-0 renal): > 100 µM

N#Cc1c(Oc2ccc(F)c(NC(=O)Cc3cccc(C(F)(F)F)c3)c2)ccc2nc(NC(=O)C3CC3)sc12
GI50 (HCT-15 colon): 0.261 µM | TGI (HCT-15 colon): > 100 µM | GI50 (MCF7 breast): 1110 nM | TGI (MCF7 breast): > 100 µM | GI50 (PC-3 prostate): 1560 nM | TGI (PC-3 prostate): > 100 µM | GI50 (HS 578T breast): 0.534 µM | TGI (HS 578T breast): 3.33 µM | GI50 (SW-620 colon): 585 nM | TGI (SW-620 colon): > 100 µM | GI50 (786-0 renal): 1.33 µM | TGI (786-0 renal): > 100 µM | GI50 (SK-OV-3 ovarian): 1.93 µM | TGI (SK-OV-3 ovarian): > 100 µM | GI50 (UACC-62 melanoma): 0.0262 µM
